Experimental data as given in paper PMC3772825, “Development of Novel ^123I-Labeled Pyridyl Benzofuran Derivatives for SPECT Imaging of β-Amyloid Plaques in Alzheimer’s Disease” (PLoS ONE, 2013).
Read-outs that look alike come from different tables or passages of the source.

Tests used:
Aβ(1–42) aggregates = target: T1, Aβ(1–42) aggregates (Homo sapiens, UniProt P05067); assay: In vitro binding assay with Aβ(1–42) aggregates, competition with [125I]IMPY; conditions: mean ± SEM of three independent determinations; Cheng-Prusoff
T1 construct: Aβ(1–42) was purchased from the Peptide Institute (Osaka, Japan); purchased Peptide Institute (Osaka, Japan)
Procedure: Aggregation was carried out by gently dissolving the peptide (0.25 mg/mL) in a buffer solution (pH 7.4) containing 10 mM sodium phosphate and 1 mM EDTA. […] The mixture was then filtered through Whatman GF/B filters using a Brandel M-24 cell harvester, and the radioactivity of the filters containing the bound ^125I ligand was measured in a γ counter. Values for the half-maximal inhibitory concentration (IC50) were determined from displacement curves of three independent experiments using GraphPad Prism 5.0, and those for the inhibition constant (Ki) were calculated using the Cheng-Prusoff equation [26]: […]

[1] = Biodistribution in normal mice; assay type: in vivo, ddY mice; conditions: for time of peak brain uptake: postinjection
Procedure: While under anesthesia with 2% isoflurane, ddY mice were injected directly into a tail vein with 100 µL of 10% EtOH containing ^125I-labeled pyridyl benzofuran derivatives (37 kBq). The mice (male, n = 5 for each time point) were sacrificed at 2, 10, 30, and 60 min postinjection. The organs of interest were removed and weighed, and radioactivity was measured with an automatic gamma counter (COBRAII; Packard). Percentage dose per organ was calculated by comparing the tissue counts to suitably diluted aliquots of the injected material. The %dose/g of samples was calculated by comparing the sample counts with the count of the diluted initial dose.

Aβ plaques [2] = assay: In vitro autoradiography using human AD brain sections; assay type: binding; conditions: postmortem human AD brain sections, 1 h at room temperature
Procedure: Postmortem brain tissues from an anonymous autopsy-confirmed case of AD (person) were obtained from the Graduate School of Medicine, Kyoto University. Six-micrometer-thick serial sections of paraffin-embedded blocks were used for in vitro autoradiography. The sections were incubated with ^125I-labeled tracers (444 kBq/50 µL) for 1 h at room temperature, then dipped in saturated Li2CO3 in 40% EtOH (two 2-min washes), washed with 40% EtOH (one 2-min wash), and rinsed with water for 30 s. After drying, the ^125I-labeled sections were exposed to a BAS imaging plate (Fuji Film) overnight. Autoradiographic images were obtained using a BAS5000 scanner system (Fuji Film). After autoradiographic examination, the same sections were immunostained using an amyloid β-protein immunohistochemical staining kit (Wako Pure Chemical Industries, Ltd.).

[3] = In vitro stability in mouse plasma; assay type: in vitro ADME; conditions: incubation 1 h at 37°C, RP-HPLC
Procedure: [^125I]8 (11 kBq, […]) was added to the mouse plasma ([…]), and the plasma samples were incubated at 37°C for 1 h. After incubation, plasma samples were mixed with equal volumes of acetonitrile followed by centrifugation at 4,500 rpm for 10 min to remove the denatured proteins. The supernatant was filtrated using a 0.45 µm filter (Millipore; Billerica, MA, USA). Then, the filtrate was analyzed by RP-HPLC.

Aβ plaques [4] = target: T2, Aβ plaques (Homo sapiens, UniProt P05067); assay: Ex vivo autoradiography of transgenic mouse brain; conditions: brains of Tg2576 mice after SPECT/CT; not in the wild-type control
Excerpt: The animals were killed by decapitation after the SPECT analysis. Brains were immediately removed and frozen in a dry ice/hexane bath. Sections of 20 µm were cut and exposed to a BAS imaging plate (Fuji Film, Tokyo, Japan) overnight. Ex vivo film autoradiograms were thus obtained. After autoradiographic examination, the same sections were stained by thioflavin-S to confirm the presence of Aβ plaques. For staining with thioflavin-S, sections were immersed in a 0.125% thioflavin-S solution containing 50% EtOH for 5 min and washed in 50% EtOH. After drying, the sections were examined using a microscope (Eclipse 80i; Nikon) equipped with a B-2A filter set (excitation, 450–490 nm; diachronic mirror, 505 nm; long-pass filter, 520 nm).

[5] = In vivo stability in normal mice (intact form in plasma by RP-HPLC); design: species or system ddY mice; conditions: 30 min postinjection, i.v.
Procedure: [^125I]8 (0.11 MBq, 100 µL) was injected into the tail vein of ddY mice. The mice were sacrificed at 2, 10, and 30 min after the injection (male, n = 3 for each time point). The blood samples were centrifuged at 3,500 rpm for 10 min to separate plasma. Plasma samples were mixed with equal volumes of acetonitrile followed by centrifugation at 4,500 rpm for 10 min to remove the denatured proteins. The supernatant was filtrated using 0.45 µm filter (Millipore; Billerica, MA, USA). Then, the filtrate was analyzed by RP-HPLC.

Aβ plaques [6] = target: T2, Aβ plaques; assay: Small-animal SPECT/CT in Tg2576 and wild-type mice; assay type: in vivo, Tg2576 transgenic mice; conditions: average ± SD
Procedure: Dynamic SPECT scans were performed on a dedicated small-animal SPECT scanner (FX3300, Gamma Medica-Ideas). Tg2576 transgenic mice (28 months, female, n = 3) and wild-type mice (28 months, female, n = 3) were used as an Alzheimer’s model and an age-matched control, respectively. Briefly, the animals were initially anesthetized with 2% isoflurane. When fully anesthetized, an animal was placed on the scanner bed, with a nose cone used to maintain anesthesia with 2% isoflurane throughout the experiment. [^123I]8 (20.5–26.5 MBq) in 10% aqueous EtOH solution containing 0.1% Tween80 was injected into a tail vein. Dynamic data were acquired over a period of 60 min after the injection, followed by the acquisition of CT data over a period of 5 min. The SPECT data were reconstructed using a 3-dimensional ordered subsets expectation maximization (3D OSEM) algorithm (5 iteration, 8 subsets). The SPECT scan time was sorted by a 30-s time frame in each 1-min interval (total, 60 frames for a total scan time of 60 min). […] For statistical analyses, regions of interest (ROIs) were manually placed over the frontal cortex (FR) and cerebellum (CE) on the summed SPECT images of [^123I]8 in Tg2576 (n = 3) and wild-type (n = 3) mice. Identification of anatomical structures was guided by the stereotaxic mouse brain atlas. […]

[7] = design: method as in PMID 17210465; conditions: ref [31]; cited from earlier work

T2 sequence (P05067 672-711 limits assumed): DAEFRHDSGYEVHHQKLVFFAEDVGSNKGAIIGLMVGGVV
T1 sequence (P05067 672-713 limits assumed): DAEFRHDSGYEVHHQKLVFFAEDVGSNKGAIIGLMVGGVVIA

SMILES: Nc1ccc(-c2cc3cc(I)ccc3o2)cn1 [Compound 7, 5-(5-Iodobenzofuran-2-yl)pyridin-2-amine]
- Ki (Aβ(1–42) aggregates): 10.3 ± 1.48 nM
- time of peak brain uptake ([1]; i.v.): 10 min
- brain2min/brain60 min ratio ([1]; washout from the brain): 1.30
- in vitro autoradiography of AD brain sections (Aβ plaques [2]): nonspecific binding in white matter

SMILES: CNc1ccc(-c2cc3cc(I)ccc3o2)cn1 [Compound 8, 5-(5-Iodobenzofuran-2-yl)-N-methylpyridin-2-amine]
- radioactivity existing as intact form in mouse plasma [3]: 77.4%
- ex vivo autoradiography, labeling of Aβ plaques (Aβ plaques [4]): extensive labeling of Aβ plaques
- Ki (Aβ(1–42) aggregates): 2.94 ± 0.22 nM
- percent of the intact form in plasma after injection [5]: 20.7%
- mean FR/CE ratio (frontal cortex to cerebellum), SPECT (Aβ plaques [6]; Tg2576 mice (n = 3)): 1.34±0.07
- mean FR/CE ratio (frontal cortex to cerebellum), SPECT (Aβ plaques [6]; wild-type mice (n = 3)): 1.01±0.03
- brain radioactivity at 60 min postinjection ([1]; i.v., 60 min): 1.30 %ID/g
- time of peak brain uptake ([1]; i.v.): 2 min

SMILES: CN(C)c1ccc(-c2cc3cc(I)ccc3o2)cn1 [Compound 9, 5-(5-Iodobenzofuran-2-yl)-N,N-dimethylpyridin-2-amine]
- Ki (Aβ(1–42) aggregates): 2.36 ± 0.53 nM
- time of peak brain uptake ([1]; i.v.): 10 min

SMILES: CNc1ccc(/C=C/c2ccc(OCCOCCOCC[18F])nc2)cc1 [[^18F]AV-45, (E)-4-(2-(6-(2-(2-(2-[^18F]fluoroethoxy)ethoxy)ethoxy)pyridin-3-yl)vinyl)-N-methylaniline]
- brain2min/brain60 min ratio [7]: 3.8
